Columns and labels:
Assay in all cases: relative viability (nuclei count vs DMSO), 5 days (fraction); higher = more cells survive
NVP-TAE684 + Olaparib = compound: COc1cc(N2CCC(N3CCN(C)CC3)CC2)ccc1Nc1ncc(Cl)c(Nc2ccccc2S(=O)(=O)C(C)C)n1 [NVP-TAE684] + O=C(c1cc(Cc2n[nH]c(=O)c3ccccc23)ccc1F)N1CCN(C(=O)C2CC2)CC1 [Olaparib] (partner 8 µM)
Outline: (§1)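 After 5 days of treatment, lung cancer cells in 1536-well plates were fixed and stained in a single step (final 0.05% Triton X-100, 1% formaldehyde, 1 ug/ml Hoechst) and their nuclei counted on 4× images. Treatment had been applied by pin tool the day after seeding as one drug alone or as a fixed anchor-drug dose with five library-drug doses (not always all listed) in √10 steps. Relative viability is the nuclei count of treated wells divided by that of vehicle wells, and values are medians of duplicate plates.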

NVP-TAE684 + Palbociclib = compound: COc1cc(N2CCC(N3CCN(C)CC3)CC2)ccc1Nc1ncc(Cl)c(Nc2ccccc2S(=O)(=O)C(C)C)n1 [NVP-TAE684] + CC(=O)c1c(C)c2cnc(Nc3ccc(N4CCNCC4)cn3)nc2n(C2CCCC2)c1=O [Palbociclib] (partner 0.5 µM)
Outline: as §1

[1] = compound: C1=CC=C2C(=C1)N=C(S2)C(C#N)C3=NC(=NC=C3)NCCC4=CN=CC=C4 + CC(C)C[C@H](NC(=O)[C@H](Cc1ccccc1)NC(=O)c1cnccn1)B(O)O [Bortezomib] (partner 0.002 µM)
Outline: as §1

[2] = compound: C1=CC=C2C(=C1)N=C(S2)C(C#N)C3=NC(=NC=C3)NCCC4=CN=CC=C4 + CC(=O)Nc1cccc(-n2c(=O)n(C3CC3)c(=O)c3c(Nc4ccc(I)cc4F)n(C)c(=O)c(C)c32)c1 [Trametinib] (partner 0.02 µM)
Outline: as §1

LOU-NH91
relative viability (NVP-TAE684 + Olaparib; first compound 0.2 µM): 0.888
relative viability (NVP-TAE684 + Olaparib; first compound 2 µM): 0.657
relative viability (NVP-TAE684 + Palbociclib; first compound 0.2 µM): 0.548
relative viability (NVP-TAE684 + Palbociclib; first compound 0.6325 µM): 0.504
relative viability (NVP-TAE684 + Palbociclib; first compound 2 µM): 0.502
relative viability ([1]; first compound 0.005 µM): 0.492
relative viability ([1]; first compound 0.01581 µM): 0.515
relative viability ([1]; first compound 0.05 µM): 0.507
relative viability ([1]; first compound 0.1581 µM): 0.464
relative viability ([1]; first compound 0.5 µM): 0.43
relative viability ([2]; first compound 0.005 µM): 0.794
relative viability ([2]; first compound 0.01581 µM): 0.806
relative viability ([2]; first compound 0.05 µM): 0.764
relative viability ([2]; first compound 0.1581 µM): 0.794
relative viability ([2]; first compound 0.5 µM): 0.779

LU99A
relative viability (NVP-TAE684 + Olaparib; first compound 0.2 µM): 0.283
relative viability (NVP-TAE684 + Olaparib; first compound 0.6325 µM): 0.266
relative viability (NVP-TAE684 + Olaparib; first compound 2 µM): 0.24
relative viability (NVP-TAE684 + Palbociclib; first compound 0.2 µM): 0.373
relative viability (NVP-TAE684 + Palbociclib; first compound 0.6325 µM): 0.429
relative viability (NVP-TAE684 + Palbociclib; first compound 2 µM): 0.254
relative viability ([1]; first compound 0.005 µM): 1.08
relative viability ([1]; first compound 0.01581 µM): 1.14
relative viability ([1]; first compound 0.05 µM): 1.1
relative viability ([1]; first compound 0.1581 µM): 1.27
relative viability ([1]; first compound 0.5 µM): 1.43
relative viability ([2]; first compound 0.005 µM): 0.463
relative viability ([2]; first compound 0.01581 µM): 0.543
relative viability ([2]; first compound 0.1581 µM): 0.661
relative viability ([2]; first compound 0.5 µM): 0.555

LXF-289
relative viability (NVP-TAE684 + Olaparib; first compound 0.2 µM): 0.931
relative viability (NVP-TAE684 + Olaparib; first compound 0.6325 µM): 1.08
relative viability (NVP-TAE684 + Olaparib; first compound 2 µM): 0.487
relative viability (NVP-TAE684 + Palbociclib; first compound 0.2 µM): 0.56
relative viability (NVP-TAE684 + Palbociclib; first compound 0.6325 µM): 0.618
relative viability (NVP-TAE684 + Palbociclib; first compound 2 µM): 0.643
relative viability ([1]; first compound 0.005 µM): 0.888
relative viability ([1]; first compound 0.01581 µM): 1.03
relative viability ([1]; first compound 0.05 µM): 1.02
relative viability ([1]; first compound 0.1581 µM): 1.06
relative viability ([1]; first compound 0.5 µM): 0.717
relative viability ([2]; first compound 0.005 µM): 0.601
relative viability ([2]; first compound 0.01581 µM): 0.726
relative viability ([2]; first compound 0.05 µM): 0.716
relative viability ([2]; first compound 0.1581 µM): 0.706
relative viability ([2]; first compound 0.5 µM): 0.577

NCI-H23
relative viability (NVP-TAE684 + Olaparib; first compound 0.2 µM): 0.312
relative viability (NVP-TAE684 + Olaparib; first compound 0.6325 µM): 0.211
relative viability (NVP-TAE684 + Olaparib; first compound 2 µM): 0.187
relative viability (NVP-TAE684 + Palbociclib; first compound 0.2 µM): 0.439
relative viability (NVP-TAE684 + Palbociclib; first compound 0.6325 µM): 0.5
relative viability (NVP-TAE684 + Palbociclib; first compound 2 µM): 0.241
relative viability ([1]; first compound 0.01581 µM): 0.917
relative viability ([1]; first compound 0.05 µM): 1.01
relative viability ([1]; first compound 0.1581 µM): 1.37
relative viability ([1]; first compound 0.5 µM): 0.92
relative viability ([2]; first compound 0.01581 µM): 0.436
relative viability ([2]; first compound 0.05 µM): 0.391
relative viability ([2]; first compound 0.1581 µM): 0.406
relative viability ([2]; first compound 0.5 µM): 0.45

NCI-H322M
relative viability (NVP-TAE684 + Olaparib; first compound 0.2 µM): 0.715
relative viability (NVP-TAE684 + Olaparib; first compound 0.6325 µM): 0.723
relative viability (NVP-TAE684 + Olaparib; first compound 2 µM): 0.558
relative viability (NVP-TAE684 + Palbociclib; first compound 0.2 µM): 0.425
relative viability (NVP-TAE684 + Palbociclib; first compound 0.6325 µM): 0.43
relative viability (NVP-TAE684 + Palbociclib; first compound 2 µM): 0.375
relative viability ([1]; first compound 0.005 µM): 0.947
relative viability ([1]; first compound 0.01581 µM): 1.31
relative viability ([1]; first compound 0.05 µM): 1.21
relative viability ([1]; first compound 0.1581 µM): 1.32
relative viability ([1]; first compound 0.5 µM): 1.23
relative viability ([2]; first compound 0.005 µM): 0.483
relative viability ([2]; first compound 0.01581 µM): 0.525
relative viability ([2]; first compound 0.05 µM): 0.489
relative viability ([2]; first compound 0.1581 µM): 0.569
relative viability ([2]; first compound 0.5 µM): 0.558

NCI-H441
relative viability (NVP-TAE684 + Olaparib; first compound 0.2 µM): 0.617
relative viability (NVP-TAE684 + Olaparib; first compound 0.6325 µM): 0.659
relative viability (NVP-TAE684 + Olaparib; first compound 2 µM): 0.309
relative viability (NVP-TAE684 + Palbociclib; first compound 0.2 µM): 0.182
relative viability (NVP-TAE684 + Palbociclib; first compound 0.6325 µM): 0.192
relative viability (NVP-TAE684 + Palbociclib; first compound 2 µM): 0.154
relative viability ([1]; first compound 0.01581 µM): 0.414
relative viability ([1]; first compound 0.05 µM): 0.679
relative viability ([1]; first compound 0.1581 µM): 0.912
relative viability ([1]; first compound 0.5 µM): 0.743
relative viability ([2]; first compound 0.005 µM): 0.444
relative viability ([2]; first compound 0.01581 µM): 0.409
relative viability ([2]; first compound 0.05 µM): 0.432
relative viability ([2]; first compound 0.1581 µM): 0.49
relative viability ([2]; first compound 0.5 µM): 0.307

NCI-H460
relative viability (NVP-TAE684 + Olaparib; first compound 0.2 µM): 0.537
relative viability (NVP-TAE684 + Olaparib; first compound 0.6325 µM): 0.484
relative viability (NVP-TAE684 + Olaparib; first compound 2 µM): 0.633
relative viability (NVP-TAE684 + Palbociclib; first compound 0.2 µM): 0.183
relative viability (NVP-TAE684 + Palbociclib; first compound 0.6325 µM): 0.168
relative viability (NVP-TAE684 + Palbociclib; first compound 2 µM): 0.098
relative viability ([1]; first compound 0.01581 µM): 1.09
relative viability ([1]; first compound 0.05 µM): 1.08
relative viability ([1]; first compound 0.1581 µM): 1.42
relative viability ([1]; first compound 0.5 µM): 0.609
relative viability ([2]; first compound 0.01581 µM): 0.137
relative viability ([2]; first compound 0.05 µM): 0.131
relative viability ([2]; first compound 0.1581 µM): 0.175
relative viability ([2]; first compound 0.5 µM): 0.141

NCI-H520
relative viability (NVP-TAE684 + Olaparib; first compound 0.2 µM): 0.327
relative viability (NVP-TAE684 + Olaparib; first compound 0.6325 µM): 0.332
relative viability (NVP-TAE684 + Olaparib; first compound 2 µM): 0.198
relative viability (NVP-TAE684 + Palbociclib; first compound 0.2 µM): 0.227
relative viability (NVP-TAE684 + Palbociclib; first compound 0.6325 µM): 0.267
relative viability (NVP-TAE684 + Palbociclib; first compound 2 µM): 0.152
relative viability ([1]; first compound 0.005 µM): 0.348
relative viability ([1]; first compound 0.01581 µM): 0.526
relative viability ([1]; first compound 0.05 µM): 0.577
relative viability ([1]; first compound 0.1581 µM): 1.27
relative viability ([1]; first compound 0.5 µM): 0.406
relative viability ([2]; first compound 0.005 µM): 0.659
relative viability ([2]; first compound 0.01581 µM): 0.684
relative viability ([2]; first compound 0.05 µM): 0.765
relative viability ([2]; first compound 0.1581 µM): 0.799
relative viability ([2]; first compound 0.5 µM): 0.824

NCI-H647
relative viability (NVP-TAE684 + Olaparib; first compound 0.2 µM): 0.434
relative viability (NVP-TAE684 + Olaparib; first compound 0.6325 µM): 0.562
relative viability (NVP-TAE684 + Olaparib; first compound 2 µM): 0.16
relative viability (NVP-TAE684 + Palbociclib; first compound 0.2 µM): 0.352
relative viability (NVP-TAE684 + Palbociclib; first compound 0.6325 µM): 0.337
relative viability (NVP-TAE684 + Palbociclib; first compound 2 µM): 0.223
relative viability ([1]; first compound 0.01581 µM): 1.04
relative viability ([1]; first compound 0.05 µM): 0.869
relative viability ([1]; first compound 0.1581 µM): 1.05
relative viability ([1]; first compound 0.5 µM): 0.989
relative viability ([2]; first compound 0.005 µM): 0.407
relative viability ([2]; first compound 0.01581 µM): 0.515
relative viability ([2]; first compound 0.05 µM): 0.45
relative viability ([2]; first compound 0.1581 µM): 0.546
relative viability ([2]; first compound 0.5 µM): 0.451

NCI-H650
relative viability (NVP-TAE684 + Olaparib; first compound 0.2 µM): 0.423
relative viability (NVP-TAE684 + Olaparib; first compound 0.6325 µM): 0.376
relative viability (NVP-TAE684 + Olaparib; first compound 2 µM): 0.289
relative viability (NVP-TAE684 + Palbociclib; first compound 0.2 µM): 0.313
relative viability (NVP-TAE684 + Palbociclib; first compound 0.6325 µM): 0.319
relative viability (NVP-TAE684 + Palbociclib; first compound 2 µM): 0.318
relative viability ([1]; first compound 0.005 µM): 0.482
relative viability ([1]; first compound 0.01581 µM): 0.528
relative viability ([1]; first compound 0.05 µM): 0.748
relative viability ([1]; first compound 0.1581 µM): 1.22
relative viability ([1]; first compound 0.5 µM): 0.778
relative viability ([2]; first compound 0.005 µM): 0.969
relative viability ([2]; first compound 0.01581 µM): 0.968
relative viability ([2]; first compound 0.05 µM): 0.863
relative viability ([2]; first compound 0.1581 µM): 1.04
relative viability ([2]; first compound 0.5 µM): 1.04

— the supplement of paper PMC10307832
